From ChEMBL document CHEMBL1201861, “Genomics of Drug Sensitity in Cancer screening data, Wellcome Trust Sanger Institute”

Columns and labels:
Assay in all cases: cells
Conditions in all cases: Homo sapiens
MC116 = type: functional, cell-based;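 also: growth inhibition of MC116 cells, read out with a cell viability assay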
Description: SANGER: Inhibition of human MC116 cell growth in a cell viability assay.

A704 = type: functional, cell-based;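 also: growth inhibition of human A704 cells, read out with a cell viability assay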
Description: SANGER: Inhibition of human A704 cell growth in a cell viability assay.

NTERA-2-cl-D1 = type: functional, cell-based;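 also: inhibition of cell growth, measured with a cell viability assay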
Description: SANGER: Inhibition of human NTERA-S-cl-D1 cell growth in a cell viability assay.

Calu-6 = type: functional, cell-based;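 also: growth of human Calu-6 cells, read out by a cell viability assay, IC50 marking inhibition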
Description: SANGER: Inhibition of human Calu-6 cell growth in a cell viability assay.

KNS-42 = type: functional, cell-based;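 also: growth inhibition of KNS-42 cells, read out with a cell viability assay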
Description: SANGER: Inhibition of human KNS-42 cell growth in a cell viability assay.

EOL1 = type: functional, cell-based;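 also: growth inhibition of EoL-1 cells, read out by a cell viability assay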
Description: SANGER: Inhibition of human EoL-1-cell cell growth in a cell viability assay.

Ramos-2G6-4C10 = type: functional, cell-based;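 also: growth inhibition of the cell line, measured by a cell viability read-out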
Description: SANGER: Inhibition of human Ramos-2G6-4C10 cell growth in a cell viability assay.

LS-513 = type: functional, cell-based
Description: SANGER: Inhibition of human LS-513 cell growth in a cell viability assay.

TK-10 = type: functional, cell-based;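 also: growth inhibition of TK-10 cells, read out in a cell viability assay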
Description: SANGER: Inhibition of human TK10 cell growth in a cell viability assay.

LB831-BLC = type: functional, cell-based;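 also: growth inhibition of LB831-BLC cells, read out with a cell viability assay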
Description: SANGER: Inhibition of human LB831-BLC cell growth in a cell viability assay.

MN-60 = type: functional, cell-based;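 also: growth inhibition of the MN-60 cell line, determined with a cell viability assay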
Description: SANGER: Inhibition of human MN-60 cell growth in a cell viability assay.

HCC2218 = type: functional, cell-based;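 also: cell viability assay read-out, with IC50 given as the concentration that inhibits growth of the cell line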
Description: SANGER: Inhibition of human HCC2218 cell growth in a cell viability assay.

NCI-H69 = type: functional, cell-based;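 also: growth inhibition of the cell line, read out with a cell viability assay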
Description: SANGER: Inhibition of human NCI-H69 cell growth in a cell viability assay.

SK-PN-DW = type: functional, cell-based;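 also: growth inhibition measured with a viability assay on these cells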
Description: SANGER: Inhibition of human SK-PN-DW cell growth in a cell viability assay.

KU812 cell line = type: functional, cell-based;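 also: growth inhibition of KU812 cells, read out with a cell viability assay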
Description: SANGER: Inhibition of human KU812 cell growth in a cell viability assay.

KMOE-2 = type: functional, cell-based;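 also: growth inhibition of human KMOE-2 cells, read out with a cell viability assay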
Description: SANGER: Inhibition of human KMOE-2 cell growth in a cell viability assay.

SNU-C2B = type: functional, cell-based;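 also: cell viability readout used to measure compound-driven suppression of SNU-C2B cell proliferation, IC50 marking half-maximal growth inhibition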
Description: SANGER: Inhibition of human SNU-C2B cell growth in a cell viability assay.

SW 954 = type: functional, cell-based;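 also: growth inhibition of SW954 human cancer cells, read out as cell viability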
Description: SANGER: Inhibition of human SW954 cell growth in a cell viability assay.

SK-MEL-2 = type: functional, cell-based;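 also: growth inhibition of human SK-MEL-2 cells measured with a cell viability assay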
Description: SANGER: Inhibition of human SK-MEL-2 cell growth in a cell viability assay.

RXF 393 = type: functional, cell-based;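 also: growth inhibition of human RXF 393 cells, read out with a cell viability assay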
Description: SANGER: Inhibition of human RXF393 cell growth in a cell viability assay.

MZ1-PC = type: functional, cell-based;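 also: cell viability assay measuring growth inhibition of human MZ1-PC cells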
Description: SANGER: Inhibition of human MZ1-PC cell growth in a cell viability assay.

NCI-H1355 = type: functional, cell-based;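 also: growth inhibition of human NCI-H1355 cells, read out by a cell viability assay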
Description: SANGER: Inhibition of human NCI-H1355 cell growth in a cell viability assay.

SCH = type: functional, cell-based;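 also: growth inhibition of human SCH cells, read out in a cell viability assay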
Description: SANGER: Inhibition of human SCH cell growth in a cell viability assay.

no-11 = type: functional, cell-based;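 also: growth inhibition of human NO-11 cells, read out with a cell viability assay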
Description: SANGER: Inhibition of human no-11 cell growth in a cell viability assay.

LU-134-A = type: functional, cell-based
Description: SANGER: Inhibition of human LU-134-A cell growth in a cell viability assay.

LOX IMVI = type: functional, cell-based
Description: SANGER: Inhibition of human LOXIMVI cell growth in a cell viability assay.

GI-1 = type: functional, cell-based
Description: SANGER: Inhibition of human GI-1 cell growth in a cell viability assay.

ES1 = type: functional, cell-based;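 also: growth inhibition of ES1 cells, read out with a cell viability assay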
Description: SANGER: Inhibition of human ES1 cell growth in a cell viability assay.

OMC-1 = type: functional, cell-based;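 also: growth inhibition of the OMC-1 cell line, measured by a cell viability assay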
Description: SANGER: Inhibition of human OMC-1 cell growth in a cell viability assay.

DMS-79 = type: functional, cell-based;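 also: growth inhibition measured with a cell viability assay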
Description: SANGER: Inhibition of human DMS-79 cell growth in a cell viability assay.

KS-1 = type: functional, cell-based;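 also: growth inhibition of KS-1 cells, read out with a cell viability assay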
Description: SANGER: Inhibition of human KS-1 cell growth in a cell viability assay.

IST-SL1 = type: functional, cell-based;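 also: growth inhibition of human IST-SL1 cells, read out with a cell viability assay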
Description: SANGER: Inhibition of human IST-SL1 cell growth in a cell viability assay.

GAK = type: functional, cell-based;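 also: cell growth inhibition read out by a cell viability assay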
Description: SANGER: Inhibition of human GAK cell growth in a cell viability assay.

NCI-H1770 = type: functional, cell-based;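 also: growth inhibition of NCI-H1770 cells determined with a viability readout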
Description: SANGER: Inhibition of human NCI-H1770 cell growth in a cell viability assay.

KLE = type: functional, cell-based;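 also: growth inhibition of human KLE cells, read out with a cell viability assay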
Description: SANGER: Inhibition of human KLE cell growth in a cell viability assay.

SHP77 = type: functional, cell-based, SHP-77;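 also: growth inhibition of human SHP-77 cells measured by a cell viability assay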
Description: SANGER: Inhibition of human SHP-77 cell growth in a cell viability assay.

SH-4 = type: functional, cell-based;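 also: growth inhibition of SH-4 cells, read out with a cell viability assay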
Description: SANGER: Inhibition of human SH-4 cell growth in a cell viability assay.

NCI-H1838 = type: functional, cell-based;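 also: growth inhibition of NCI-H1838 cells, determined with a cell viability readout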
Description: SANGER: Inhibition of human NCI-H1838 cell growth in a cell viability assay.

KY821 = type: functional, cell-based;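 also: growth inhibition of human KY821 cells, read out by a cell viability assay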
Description: SANGER: Inhibition of human KY821 cell growth in a cell viability assay.

LAN-6 = type: functional, cell-based;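 also: growth inhibition of LAN-6 cells, determined with a cell viability assay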
Description: SANGER: Inhibition of human LAN-6 cell growth in a cell viability assay.

C8166 = type: functional, cell-based;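 also: growth inhibition of human C8166 cells measured by a cell viability assay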
Description: SANGER: Inhibition of human C8166 cell growth in a cell viability assay.

SBC-1 = type: functional, cell-based;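 also: cell viability assay measuring growth inhibition of the SBC-1 cell line, IC50 being the concentration that halves growth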
Description: SANGER: Inhibition of human SBC-1 cell growth in a cell viability assay.

ES5 = type: functional, cell-based;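 also: growth inhibition of human ES5 cells, read out by a cell viability assay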
Description: SANGER: Inhibition of human ES5 cell growth in a cell viability assay.

JVM-2 = type: functional, cell-based;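 also: growth inhibition of JVM-2 cells determined by a cell viability assay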
Description: SANGER: Inhibition of human JVM-2 cell growth in a cell viability assay.

RPMI-8226 = type: functional, cell-based
Description: SANGER: Inhibition of human RPMI-8226 cell growth in a cell viability assay.

EC-GI-10 = type: functional, cell-based
Description: SANGER: Inhibition of human EC-GI-10 cell growth in a cell viability assay.

JAR = type: functional, cell-based;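 also: growth inhibition of human JAR cells determined with a cell viability assay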
Description: SANGER: Inhibition of human JAR cell growth in a cell viability assay.

NCI-H1648 = type: functional, cell-based;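 also: cell viability assay measuring inhibition of NCI-H1648 cell growth, from the Sanger screening data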
Description: SANGER: Inhibition of human NCI-H1648 cell growth in a cell viability assay.

MHH-PREB-1 = type: functional, cell-based;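 also: cell viability assay measuring inhibition of proliferation of human MHH-PREB-1 cells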
Description: SANGER: Inhibition of human MHH-PREB-1 cell growth in a cell viability assay.

KARPAS-299 = type: functional, cell-based
Description: SANGER: Inhibition of human KARPAS-299 cell growth in a cell viability assay.

NCI-H1155 = type: functional, cell-based;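 also: cell growth inhibition measured by a viability assay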
Description: SANGER: Inhibition of human NCI-H1155 cell growth in a cell viability assay.

LB1047-RCC = type: functional, cell-based;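 also: inhibition of cell growth, determined with a cell viability assay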
Description: SANGER: Inhibition of human LB1047-RCC cell growth in a cell viability assay.

SNU1 = type: functional, cell-based;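 also: growth inhibition of human NCI-SNU-1 cells, measured with a cell viability assay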
Description: SANGER: Inhibition of human NCI-SNU-1 cell growth in a cell viability assay.

ETK-1 = type: functional, cell-based;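 also: growth inhibition of human ETK-1 cells, read out with a cell viability assay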
Description: SANGER: Inhibition of human ETK-1 cell growth in a cell viability assay.

OCUB-M = type: functional, cell-based;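 also: growth inhibition of the cancer cell line, read out through a cell viability assay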
Description: SANGER: Inhibition of human OCUB-M cell growth in a cell viability assay.

J-RT3-T3-5 = type: functional, cell-based
Description: SANGER: Inhibition of human J-RT3-T3-5 cell growth in a cell viability assay.

HL-60 = type: functional, cell-based
Description: SANGER: Inhibition of human HL-60 cell growth in a cell viability assay.

GR-ST = type: functional, cell-based
Description: SANGER: Inhibition of human GR-ST cell growth in a cell viability assay.

HDLM-2 = type: functional, cell-based
Description: SANGER: Inhibition of human HDLM-2 cell growth in a cell viability assay.

GB-1 = type: functional, cell-based
Description: SANGER: Inhibition of human GB-1 cell growth in a cell viability assay.

KG-1 = type: functional, cell-based
Description: SANGER: Inhibition of human KG-1 cell growth in a cell viability assay.

697 = type: functional, cell-based
Description: SANGER: Inhibition of human 697 cell growth in a cell viability assay.

NOMO-1 = type: functional, cell-based
Description: SANGER: Inhibition of human NOMO-1 cell growth in a cell viability assay.

MOLT-16 = type: functional, cell-based
Description: SANGER: Inhibition of human MOLT-16 cell growth in a cell viability assay.

GOTO = type: functional, cell-based
Description: SANGER: Inhibition of human GOTO cell growth in a cell viability assay.

ES8 = type: functional, cell-based
Description: SANGER: Inhibition of human ES8 cell growth in a cell viability assay.

Work on `CCNc1cc(N[C@H]2CC[C@@H](O)CC2)nc(Nc2ccc3c(ccn3Cc3ccccc3)c2)n1` yielded an IC50 (MC116) greater than 5.12 µM, an IC50 (A704) greater than 5.12 µM and an IC50 (NTERA-2-cl-D1) greater than 5.12 µM. For the same compound, the IC50 (Calu-6) was greater than 5.12 µM, the IC50 (KNS-42) was greater than 5.12 µM and the IC50 (EOL1) was greater than 5.12 µM. The IC50 (Ramos-2G6-4C10) was greater than 5.12 µM, the IC50 (LS-513) was greater than 5.12 µM and the IC50 (TK-10) was greater than 5.12 µM. The IC50 (LB831-BLC) was greater than 5.12 µM, the IC50 (MN-60) was greater than 5.12 µM and the IC50 (HCC2218) was greater than 5.12 µM. The IC50 (NCI-H69) was greater than 5.12 µM, the IC50 (SK-PN-DW) was greater than 5.12 µM and the IC50 (KU812 cell line) was greater than 5.12 µM. The IC50 (KMOE-2) was greater than 5.12 µM, the IC50 (SNU-C2B) was greater than 5.12 µM and the IC50 (SW 954) was greater than 5.12 µM. The IC50 (SK-MEL-2) was greater than 5.12 µM, the IC50 (RXF 393) was greater than 5.12 µM and the IC50 (MZ1-PC) was greater than 5.12 µM. The IC50 (NCI-H1355) was greater than 5.12 µM, the IC50 (SCH) was greater than 5.12 µM and the IC50 (no-11) was greater than 5.12 µM. For the same compound, the IC50 (LU-134-A) was greater than 5.12 µM, the IC50 (LOX IMVI) was greater than 5.12 µM and the IC50 (GI-1) was 2.95 µM. It also gave an IC50 (ES1) greater than 5.12 µM, an IC50 (OMC-1) greater than 5.12 µM and an IC50 (DMS-79) greater than 5.12 µM. The IC50 (KS-1) was 4.3 µM, the IC50 (IST-SL1) was greater than 5.12 µM and the IC50 (GAK) was greater than 5.12 µM. It also gave an IC50 (NCI-H1770) of 5.08 µM, an IC50 (KLE) greater than 5.12 µM and an IC50 (SHP77) greater than 5.12 µM. For the same compound, the IC50 (SH-4) was 3.31 µM, the IC50 (NCI-H1838) was greater than 5.12 µM and the IC50 (KY821) was greater than 5.12 µM. It also gave an IC50 (LAN-6) greater than 5.12 µM, an IC50 (C8166) greater than 5.12 µM and an IC50 (SBC-1) greater than 5.12 µM. It also gave an IC50 (ES5) greater than 5.12 µM, an IC50 (JVM-2) greater than 5.12 µM and an IC50 (RPMI-8226) greater than 5.12 µM. For the same compound, the IC50 (EC-GI-10) was greater than 5.12 µM, the IC50 (JAR) was greater than 5.12 µM and the IC50 (NCI-H1648) was greater than 5.12 µM. The IC50 (MHH-PREB-1) was greater than 5.12 µM, the IC50 (KARPAS-299) was greater than 5.12 µM and the IC50 (NCI-H1155) was greater than 5.12 µM. The IC50 (LB1047-RCC) was greater than 5.12 µM, the IC50 (SNU1) was greater than 5.12 µM and the IC50 (ETK-1) was 0.242 µM. For the same compound, the IC50 (OCUB-M) was greater than 5.12 µM, the IC50 (J-RT3-T3-5) was greater than 5.12 µM and the IC50 (HL-60) was greater than 5.12 µM. For the same compound, the IC50 (GR-ST) was greater than 5.12 µM, the IC50 (HDLM-2) was greater than 5.12 µM and the IC50 (GB-1) was greater than 5.12 µM. It also gave an IC50 (KG-1) greater than 5.12 µM, an IC50 697 of 4.17 µM and an IC50 (NOMO-1) greater than 5.12 µM. For the same compound, the IC50 (MOLT-16) was greater than 5.12 µM, the IC50 (GOTO) was greater than 5.12 µM and the IC50 (ES8) was greater than 5.12 µM.

Compound `COc1cc(C)c(Sc2cnc(NC(=O)c3ccc(CNC(C)C(C)(C)C)cc3)s2)cc1C(=O)N1CCN(C(C)=O)CC1` (configuration not stated) has an IC50 (MC116) greater than 10.2 µM, an IC50 (A704) greater than 10.2 µM and an IC50 (NTERA-2-cl-D1) of 8.79 µM. For the same compound, the IC50 (Calu-6) was greater than 10.2 µM, the IC50 (KNS-42) was greater than 10.2 µM and the IC50 (EOL1) was greater than 10.2 µM. For the same compound, the IC50 (Ramos-2G6-4C10) was greater than 10.2 µM, the IC50 (LS-513) was greater than 10.2 µM and the IC50 (TK-10) was greater than 10.2 µM. It also gave an IC50 (LB831-BLC) of 6.16 µM, an IC50 (MN-60) greater than 10.2 µM and an IC50 (HCC2218) greater than 10.2 µM. For the same compound, the IC50 (NCI-H69) was greater than 10.2 µM, the IC50 (SK-PN-DW) was 10.2 µM and the IC50 (KU812 cell line) was 8.97 µM. For the same compound, the IC50 (KMOE-2) was greater than 10.2 µM, the IC50 (SNU-C2B) was 4.64 µM and the IC50 (SW 954) was 7.79 µM. The IC50 (SK-MEL-2) was greater than 10.2 µM, the IC50 (RXF 393) was greater than 10.2 µM and the IC50 (MZ1-PC) was 3.76 µM. It also gave an IC50 (NCI-H1355) of 6.22 µM, an IC50 (SCH) greater than 10.2 µM and an IC50 (no-11) greater than 10.2 µM. For the same compound, the IC50 (LU-134-A) was greater than 10.2 µM, the IC50 (LOX IMVI) was greater than 10.2 µM and the IC50 (GI-1) was greater than 10.2 µM. For the same compound, the IC50 (ES1) was 7.44 µM, the IC50 (OMC-1) was greater than 10.2 µM and the IC50 (DMS-79) was greater than 10.2 µM. For the same compound, the IC50 (KS-1) was 1.21 µM, the IC50 (IST-SL1) was greater than 10.2 µM and the IC50 (GAK) was greater than 10.2 µM. For the same compound, the IC50 (NCI-H1770) was greater than 10.2 µM, the IC50 (KLE) was greater than 10.2 µM and the IC50 (SHP77) was greater than 10.2 µM. It also gave an IC50 (SH-4) of 2.49 µM, an IC50 (NCI-H1838) greater than 10.2 µM and an IC50 (KY821) greater than 10.2 µM. It also gave an IC50 (LAN-6) of 7.29 µM, an IC50 (C8166) greater than 10.2 µM and an IC50 (SBC-1) greater than 10.2 µM. The IC50 (ES5) was greater than 10.2 µM, the IC50 (JVM-2) was greater than 10.2 µM and the IC50 (RPMI-8226) was greater than 10.2 µM. It also gave an IC50 (EC-GI-10) greater than 10.2 µM, an IC50 (JAR) greater than 10.2 µM and an IC50 (NCI-H1648) greater than 10.2 µM. It also gave an IC50 (MHH-PREB-1) greater than 10.2 µM, an IC50 (KARPAS-299) greater than 10.2 µM and an IC50 (NCI-H1155) greater than 10.2 µM. The IC50 (LB1047-RCC) was greater than 10.2 µM, the IC50 (SNU1) was greater than 10.2 µM and the IC50 (ETK-1) was 2.24 µM. For the same compound, the IC50 (OCUB-M) was greater than 10.2 µM, the IC50 (J-RT3-T3-5) was greater than 10.2 µM and the IC50 (HL-60) was greater than 10.2 µM. It also gave an IC50 (GR-ST) greater than 10.2 µM, an IC50 (HDLM-2) greater than 10.2 µM and an IC50 (GB-1) of 9.12 µM. The IC50 (KG-1) was greater than 10.2 µM, the IC50 697 was 6.66 µM and the IC50 (NOMO-1) was greater than 10.2 µM. For the same compound, the IC50 (MOLT-16) was 4.75 µM, the IC50 (GOTO) was greater than 10.2 µM and the IC50 (ES8) was greater than 10.2 µM.
